One data set relates to human chondrocyte cells. Kind of data set: Hydrolysis of extracellular ATP in the presence of human chondrocyte culture. Type of data set: cell-based. The following applies: 100 μM each, 8 h, ATP alone 56%, without cells 18%. The method, then:
In this study, the metabolic hydrolysis of ATP was evaluated. […] Following incubation, the samples were collected and heated at 80° C. for 15 min and extracted with chloroform, applied onto an anion exchange cartridge, and freeze-dried. The resulting residue was analyzed by HPLC.

In a further data set the test system is PC12 cells. Kind of data set: Stability of nucleotides in PC12 cells.
For another data set, the system named is primary neurons. Kind of data set: Protection of primary neuron culture against Aβ42 insult (trypan blue count). It is filed as cell-based. The following applies: Primary neuron. The method, then:
Primary neuron cells were cultured in 96 wells plate (95×10^4 per well). After 24 h the cells were treated with 50 μM Aβ42 and various concentrations of APCPP-γ-S (0.04-25 μM) for 48 h. Cell viability was measured by dyeing the cells with trypan blue and counts of the vital cells. The results shown are the mean±S.D of three independent experiments in triplicate (*P<0.05, vs. Aβ42 treatment).
Primary neurons cells were cultured in 96 wells plate (95×10^4 per well). […] Cell viability was measured by dyeing the cells with trypan blue and counts the vital cells. The results shown are the mean±S.D of three independent experiments in triplicate (*P<0.05, **P<0.01 vs. Aβ42 treatment).
In this study, the neuroprotective activity of APCPP-γ-S in neuronal cells exposed to toxic Aβ42 was evaluated. At first we measured the number of the viable neuronal cells after treatment with Aβ42 (5-50 μM) (FIG. 11). At 50 μM Aβ42, 50% of the neuronal culture remained vital. Next, we measured the protective effect of APCPP-γ-S: primary neurons were treated with APCPP-γ-S (0.04-25 μM) and 50 μM Aβ42 for 48 h.

We go through three compounds from patent publication US20140378408A1, “NUCLEOSIDE 5'-PHOSPHOROTHIOATE ANALOGUES AND USES THEREOF” (BAR-ILAN UNIVERSITY, an Israeli University, priority 2012, published 2014).

Where two headings read alike, the source gives them in different places.

With `Nc1ncnc2c1ncn2[C@@H]1O[C@H](COP(O)(=S)OP(=O)(O)C(Cl)(Cl)P(=O)(O)O)[C@@H](O)[C@H]1O` (single isomer, unassigned; isomer a) [APPCCl2P-α-S (isomer A), adenosine 5′-[Pα-thio]-β,γ-(dichloromethylene)triphosphate], the “degradation of ATP on co-application” value with human chondrocyte cells is recorded as 22%.

Take `Nc1ncnc2c1ncn2[C@@H]1O[C@H](COP(=O)(O)OP(O)(O)=S)[C@@H](O)[C@H]1O` [ADP-β-S, adenosine 5′-[β-thio]diphosphate, reference compound]: the “fold more stable in PC12 cells than parent nucleotide (GDP, ADP)” value in the data set on PC12 cells turned out to be 3 fold.

Take `Nc1ncnc2c1ncn2[C@@H]1O[C@H](COP(=O)(O)CP(=O)(O)OP(O)(O)=S)[C@@H](O)[C@H]1O` [APCPP-γ-S, adenosine 5′-[Pγ-thio]-α,β-methylenetriphosphate]: the IC50 in the data set on primary neurons (48 h, read-out: concentration that maintained 50% of neuronal cells) stood at 200 nM; with primary neurons (read-out: IC50 protection from Aβ42 insult), 200 nM.
